We go through 1 molecule from patent US20230382862A1, “ERG ONCOGENE INHIBITORS” (The Henry M. Jackson Foundation for the Advancement of …, priority 2020, published 2023).

For orientation: IC50 means the concentration at which inhibition is half-maximal. Low readings indicate higher potency, high ones lower potency.

The subject of one experiment is VCaP cells. The experiment in a line: VCaP cell growth inhibition / cell viability (Cell Titer-Glo). Format: cell-based. The following applies: Homo sapiens, 96 h. For orientation: In ATP-based viability assays light output follows the ATP content of the culture.
A further experiment concerns HUVEC cells. The experiment in a line: Growth of endothelial-derived primary cells (HUVEC). Format: cell-based, human. The following applies: within effective concentration range observed in VCaP, data not shown. Here is the method: (§1) TMPRSS2-ERG fusion positive ERG oncoprotein expressing prostate cancer cell line VCaP, was obtained from the American Tissue Culture Collection (ATCC; Manassas, Va.). The cells were grown in ATCC-recommended cell culture media under cell growth promoting conditions as recommended by the supplier (DMEM media; Gibco, Grand island, NY) supplemented with 10% fetal bovine serum (ATCC; Manassas, Va.). Normal primary endothelial cells, HUVEC-human umbilical vein endothelial cells, were also obtained from ATCC (Endothelial cell media; Cell biologics, Chicago, Ill.) supplemented with 10% FBS) as recommended by the supplier. The passage number of cell lines used in this study ranges from 1 to 6.
(§2) ERG protein is naturally expressed in endothelial cells.

Another experiment addresses T1, RIOK2 (Homo sapiens, UniProt Q9BVS4).
T1 construct: endogenous in cells; host or cells: HUVEC primary endothelial cells (ATCC)
Put plainly: RIOK2 levels in endothelial-derived primary cells (HUVEC). Format: cell-based. The following applies: within effective concentration range observed in VCaP, data not shown. Here is the method:
as §1, §2

Structures are written as SMILES.

T1 sequence (Q9BVS4 whole entry): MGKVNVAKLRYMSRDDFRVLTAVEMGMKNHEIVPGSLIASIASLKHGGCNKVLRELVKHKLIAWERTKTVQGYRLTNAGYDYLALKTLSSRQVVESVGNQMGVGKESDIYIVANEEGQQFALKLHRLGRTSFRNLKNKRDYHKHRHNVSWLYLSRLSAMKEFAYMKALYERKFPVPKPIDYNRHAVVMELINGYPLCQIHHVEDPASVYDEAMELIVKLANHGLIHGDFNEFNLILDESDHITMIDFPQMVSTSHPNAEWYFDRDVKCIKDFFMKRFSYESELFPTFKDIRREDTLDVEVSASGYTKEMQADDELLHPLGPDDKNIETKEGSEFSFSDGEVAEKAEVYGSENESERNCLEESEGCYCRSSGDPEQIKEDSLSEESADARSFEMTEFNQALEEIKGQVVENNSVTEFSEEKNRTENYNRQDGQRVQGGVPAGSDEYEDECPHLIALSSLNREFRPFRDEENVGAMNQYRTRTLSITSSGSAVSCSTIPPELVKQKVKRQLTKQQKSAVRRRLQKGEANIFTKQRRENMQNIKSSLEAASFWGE
Procedure for VCaP cells: TMPRSS2-ERG fusion positive ERG oncoprotein expressing prostate cancer cell line VCaP, was obtained from the American Tissue Culture Collection (ATCC; Manassas, Va.). The cells were grown in ATCC-recommended cell culture media under cell growth promoting conditions as recommended by the supplier (DMEM media; Gibco, Grand island, NY) supplemented with 10% fetal bovine serum (ATCC; Manassas, Va.). […] The passage number of cell lines used in this study ranges from 1 to 6.
48 hours following plating of cells, the appropriate test compound is added to each well of the tissue culture dish at concentrations (0, 0.001, 0.005, 0.01, 0.05, 0.10, 0.15, 0.2, 0.25, 0.3, 0.35, 0.4) μM/per well). The medium was replenished every 24 hours with fresh growth medium containing the same concentration of the same test compound for indicated period of the cell growth inhibition assay for 96 hours. At the end of the treatment the cells were analyzed for viability by labeling for ATPase activity. Cell growth were calculated by measuring bioluminescence using Cell Glow ATPase assay with Cell Titer-Glo luminescent cell viability assay (Promega, Madison, Wis.) detected by the HT Envision System (PerkinElmer, Waltham, Mass.). The average viable cell numbers of each concentration in triplicates were used to calculate the IC50 of each compound with the GraphPad Prism 7 software. […]

As for `CN(C)c1ccc(N=Nc2ccccn2)c(O)c1.CS(=O)(=O)O` [Compound 2, 5-(dimethylamino)-2-(pyridin-2-yldiazenyl)phenol, methanesulfonic acid (1:1)], the IC50 in the experiment on VCaP cells stood at 89 nM. In the experiment on HUVEC cells, the “effect on growth of endothelial-derived primary cells” value is “did not effect”. Also, the “effect on RIOK2 levels of endothelial-derived primary cells” value at RIOK2 was “did not effect”.
